{
  "source": "patent US12484600B2",
  "about": "“Expanded foam for delivery of functional ingredients” (Boehringer Ingelheim Vetmedica GmbH, priority 2020, dated 2025)",
  "tested_on": "Staphylococcus aureus NCTC 8325-4",
  "experiment": "Growth in LB broth flask culture with or without calcium chloride supplementation (visual growth, terminal plate count)",
  "format": "cell-based",
  "conditions": "for critical limit in combination with 0.5% calcium chloride: procedures as for Table 8",
  "procedure": "The test organism is Staphylococcus aureus NCTC 8325-4 as described in the methods and flask cultures are 100 ml of Luria-Bertani broth (LB broth) in 250 ml Erlenmeyer flasks. LB broth is used instead of brain Heart Infusion because it is more defined and limited in mineral content.\nA standard inoculum is grown as described in the methods section and adjusted to a viable cell count of […] by dilution in sterile saline, 0.1 ml of this is used to aseptically inoculate 100 ml volumes of test media—the inoculum being […] in the test flask.\nTo determine the Minimum Inhibitory effect of hexametaphosphate a series of flasks with 100 ml of LB broth were each supplemented with concentrations of hexametaphosphate ranging from 0% W/W to 1% W/W, each flask was inoculated with a standard inoculum to achieve 1×10^3 viable bacterial in the flask, the flasks were incubated at 37° C. in a rotary incubator for 24 hours and evaluated visually for growth at that time.\nFollowing visual evaluation, 0.5% sterile calcium chloride was added to all flasks and incubation continued for a further 24 hours.",
  "data": [
    {"smiles": "O=P([O-])([O-])O.[Na+].[Na+]", "note": "[di-sodium orthophosphate]", "values": [
      {"measurement": "critical limit in combination with 0.5% calcium chloride", "value": 0.75, "unit": "%"}
    ]},
    {"smiles": "O=C([O-])CC(O)(CC(=O)[O-])C(=O)[O-].[Na+].[Na+].[Na+]", "note": "[tri-sodium citrate]", "values": [
      {"measurement": "critical limit in combination with 0.5% calcium chloride", "value": 0.5, "unit": "%"}
    ]},
    {"smiles": "O=c1ccn([C@@H]2O[C@H](COP(=O)(O)O)[C@@H](O)[C@H]2O)c(=O)[nH]1", "note": "[Uridine monophosphate]", "values": [
      {"measurement": "critical limit in combination with 0.5% calcium chloride", "value": "inconclusive"}
    ]},
    {"smiles": "[Ca+2].[Cl-].[Cl-]", "note": "[Calcium, calcium chloride]", "values": [
      {"measurement": "24 H CFU/ml", "setting": "0.5% Calcium, LB broth", "value": ">10^9 CFU/ml"},
      {"measurement": "effect on growth", "setting": "0.5% calcium chloride supplement alone", "value": "no effect on growth"}
    ]},
    {"smiles": "O=P1([O-])OP(=O)([O-])OP(=O)([O-])OP(=O)([O-])OP(=O)([O-])OP(=O)([O-])O1.[Na+].[Na+].[Na+].[Na+].[Na+].[Na+]", "note": "[SHMP, sodium hexametaphosphate]", "values": [
      {"measurement": "24 H CFU/ml", "setting": "0.27% SHMP, LB broth", "value": "~2 × 10^2 CFU/ml"},
      {"measurement": "residual viability", "setting": "0.27% hexametaphosphate, 24 hours", "value": "2×10^2"},
      {"measurement": "concentrations that remained inhibited post addition of calcium chloride", "setting": "0.5% calcium chloride", "value": "at least 0.5%"},
      {"measurement": "concentrations with full growth 24 hours post addition of calcium chloride", "setting": "0.5% calcium chloride", "value": "≤ 0.27", "unit": "%"},
      {"measurement": "effect on microbial growth under conditions of excess calcium", "setting": "0.5% calcium chloride, 0.27% SHMP, 0.375% functional emulsion", "value": "no inhibitory effect on microbial growth"},
      {"measurement": "concentrations at which growth was apparently inhibited", "setting": "LB broth, 24 hours, no calcium supplementation", "value": "≥ 0.05", "unit": "%"}
    ]},
    {"smiles": "O=P([O-])([O-])O[C@H]1[C@H](OP(=O)([O-])O)[C@H](OP(=O)([O-])[O-])[C@H](OP(=O)([O-])O)[C@@H](OP(=O)([O-])[O-])[C@@H]1OP(=O)([O-])O.[Na+].[Na+].[Na+].[Na+].[Na+].[Na+].[Na+].[Na+].[Na+]", "note": "[sodium phytate]", "values": [
      {"measurement": "critical limit in combination with 0.5% calcium chloride", "value": 0.2, "unit": "%"}
    ]}
  ]
}
